Calls of active or inactive are those of the source. The calls are words filed in the database; no cut-off is given here.
What follows are compounds tested on Echinochloa oryzicola (assay: Herbicide activity against Echinochloa oryzicola assessed as inhibition of shoot growth compound treated at 3 ppm to seeds measured after 7 days).
Assay type: functional, organism-based

Compound | growth inhibition (GI)
CCCCC[C@@]12O[C@@H]1CC[C@H]2OCc1ccccc1 (racemic) | inactive
CCCCC[C@@]12O[C@@H]1CC[C@H]2OCc1ccccc1C (racemic) | inactive
CCCCC[C@@]12O[C@@H]1CC[C@H]2OCc1ccccc1Cl (racemic) | inactive
CCCCC[C@@]12O[C@@H]1CC[C@H]2OCc1ccccc1F (racemic) | inactive

The compounds below were run on Echinochloa oryzicola (assay: Herbicide activity against Echinochloa oryzicola assessed as inhibition of root growth compound treated to seeds measured after 7 days).
Assay type: functional

Compound | I50 [ppm]
CCCCC[C@]12O[C@H]1CC[C@H]2OCc1ccccc1C (racemic) | 0.25
CCCCC[C@]12O[C@H]1CC[C@H]2OCc1ccccc1F (racemic) | 0.03
CCCCC[C@]12O[C@H]1CC[C@H]2OCc1ccccc1Cl (racemic) | 0.5
CCCCC[C@]12O[C@H]1CC[C@H]2OCc1ccccc1 (racemic) | 0.03

What follows are compounds tested on Echinochloa oryzicola (assay: Herbicide activity against Echinochloa oryzicola assessed as inhibition of root growth compound treated at 3 ppm to seeds measured after 7 days).
Assay type: functional, organism-based

Compound | growth inhibition (GI)
CCCCC[C@@]12O[C@@H]1CC[C@H]2OCc1ccccc1 (racemic) | inactive
CCCCC[C@@]12O[C@@H]1CC[C@H]2OCc1ccccc1C (racemic) | inactive
CCCCC[C@@]12O[C@@H]1CC[C@H]2OCc1ccccc1Cl (racemic) | inactive
CCCCC[C@@]12O[C@@H]1CC[C@H]2OCc1ccccc1F (racemic) | inactive

Each compound was assayed on Echinochloa oryzicola (assay: Herbicide activity against Echinochloa oryzicola assessed as inhibition of growth of first sheath compound treated to seeds measured after 7 days).
Assay type: functional

Compound | growth inhibition (GI) | I50 [ppm]
CCCCC[C@]12O[C@H]1CC[C@H]2OCc1ccccc1C (racemic) | Active | 
CCCCC[C@]12O[C@H]1CC[C@H]2OCc1ccccc1F (racemic) |  | 0.2
CCCCC[C@]12O[C@H]1CC[C@H]2OCc1ccccc1Cl (racemic) | Active | 
CCCCC[C@]12O[C@H]1CC[C@H]2OCc1ccccc1 (racemic) |  | 0.2
CCCCC[C@@]12O[C@@H]1CC[C@H]2OCc1ccccc1 (racemic) | Active | 
CCCCC[C@@]12O[C@@H]1CC[C@H]2OCc1ccccc1C (racemic) | Active | 
CCCCC[C@@]12O[C@@H]1CC[C@H]2OCc1ccccc1Cl (racemic) | Active | 
CCCCC[C@@]12O[C@@H]1CC[C@H]2OCc1ccccc1F (racemic) | Active | 
